Changes are numbered by the printed parent chain. The source made the active and inactive calls. No cut-off for these calls is given here.
Assays:
[1] = target: T1, Serine/threonine-protein kinase Sgk1 (Homo sapiens, UniProt O00141); test: Inhibition of human recombinant SGK1
T1 sequence (O00141 whole entry): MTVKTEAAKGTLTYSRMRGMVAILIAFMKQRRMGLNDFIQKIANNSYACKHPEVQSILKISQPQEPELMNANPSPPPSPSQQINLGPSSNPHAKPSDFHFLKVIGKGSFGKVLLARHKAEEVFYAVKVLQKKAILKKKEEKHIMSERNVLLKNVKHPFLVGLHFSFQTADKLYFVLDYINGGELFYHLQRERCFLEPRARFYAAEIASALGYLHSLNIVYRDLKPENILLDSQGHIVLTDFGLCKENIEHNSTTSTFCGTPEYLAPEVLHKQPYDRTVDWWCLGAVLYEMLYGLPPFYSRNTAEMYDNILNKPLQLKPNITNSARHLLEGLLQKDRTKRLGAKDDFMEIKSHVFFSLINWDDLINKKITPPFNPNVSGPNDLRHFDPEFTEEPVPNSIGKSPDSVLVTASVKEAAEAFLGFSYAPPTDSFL

[2] = target: T2, Serine/threonine-protein kinase Sgk1 (Homo sapiens) (UniProt O00141); test: Inhibition of constitutively active SGK1 expressed in human HEK293 cells assessed as inhibition of FOXO3a phosphorylation at Thr 32 at 100 uM after 40 hrs; format: cell-based
T2 sequence (whole entry): T1 sequence (O00141 whole entry)

HEK293 [3] = test: Induction of vacuolization in human HEK293 cells up to 100 uM; format: cell-based
[4] = system: T3, Serine/threonine-protein kinase Sgk1 (Homo sapiens), O00141 [S422D]; test: Inhibition of SGK1 S422D mutant expressed in human HEK293 cells assessed as inhibition of FOXO3a phosphorylation at Thr 32 at 100 uM after 40 hrs; format: cell-based
T3 sequence (whole entry): T1 sequence (O00141 whole entry) with S422D

HEK293 [5] = test: Induction of vacuolization in human HEK293 cells at >1 uM; format: cell-based
[6] = system: T3, Serine/threonine-protein kinase Sgk1 (Homo sapiens), O00141 [S422D]; test: Inhibition of SGK1 S422D mutant expressed in human HEK293 cells assessed as inhibition of FOXO3a phosphorylation at Thr 32 after 40 hrs; format: cell-based
[7] = target: T2, Serine/threonine-protein kinase Sgk1 (Homo sapiens); test: Inhibition of constitutively active SGK1 expressed in human HEK293 cells assessed as inhibition of FOXO3a phosphorylation at Thr 32 after 40 hrs; format: cell-based

| IC50 [1] | inhibition [2] | inhibition [4] | inhibition [6] | inhibition [7] | Structure (SMILES) | Activity (HEK293 [3]) | Activity (HEK293 [5]) |
| --- | --- | --- | --- | --- | --- | --- | --- |
| 60 µM | Active | Active |  |  | COc1ccc(NC(=O)Cc2nc(-c3ccc([N+](=O)[O-])cc3)cs2)cc1 | Non-toxic |  |
|  |  |  | Dose-dependent effect | Dose-dependent effect | O=C(O)c1ccc(-c2c[nH]c3ncc(-c4ccccc4)cc23)cc1C1CCCC1 [GSK-650394] |  | Toxic |

From ChEMBL document CHEMBL2069276, “Identification of a novel serum and glucocorticoid regulated kinase-1 (SGK1) ligand from virtual screening” (Bioorg Med Chem Lett, 2012)
